{"source": "patent US9889113B2", "about": "“Method for reversing, preventing, delaying or stabilizing soft tissue calcification” (Panion & BF Biotech, Inc., priority 2006, dated 2018)", "key": {"[1]": {"system": "patients with end stage renal disease (ESRD) on hemodialysis", "test": "Randomized, double-blind, placebo-controlled, dose-ranging study of ferric citrate on serum phosphate, Ca and Ca×PO4", "assay_type": "in vivo, human", "conditions": "for Serum [Ca] (mg/dL) at Day 0 / Serum [PO4] (mg/dL) at Day 0 / [Ca] * [PO4] (mg/dL)^2 at Day 0: Day 0 baseline; for Serum Ca (mg/dL): Linear Regression: N.S.: Not Significant", "from_the_text": "Objectives: (1) To determine the effect of ferric citrate at doses of 2, 4 and 6 g daily, administered TID (three times a day), for 28 days on serum phosphate (PO4) levels in patients with end stage renal disease (ESRD). (2) To evaluate the safety of ferric citrate at doses of 2, 4, 6 g daily, administered TID, for 28 days in patients with ESRD.\nStudy Design: Randomized, double-blind, placebo-controlled, dose-ranging study to assess the effect of ferric citrate on serum phosphate concentrations in patients with ESRD on hemodialysis. Patients are assessed at Study Days 14 and 28 for effectiveness as measured by serum phosphate concentrations. Patients who received one or more doses of study medication are also assessed for safety.\nStudy Duration: 8 weeks (including the screening period, 2 weeks washout, 4 weeks treatment)\nFerric citrate is administered orally, and is given equally three times a day."}, "[2]": {"system": "patients with end stage renal disease (ESRD) on hemodialysis", "test": "Randomized, double-blind, placebo-controlled, dose-ranging study of ferric citrate on serum phosphate, Ca and Ca×PO4", "assay_type": "in vivo, human", "conditions": "Day 28; 2, 4, 6 g/day TID vs placebo"}, "[3]": {"conditions": "0, 2, 4 and 6 gm/day, TID immediately after meals"}, "[4]": {"conditions": "6 g/day (N = 32), Day 28, *P < 0.05 baseline change vs placebo"}, "[5]": {"conditions": "Day 14, 2, 4, 6 g/day TID vs placebo"}, "[6]": {"conditions": "Day 28, 2, 4, 6 g/day TID vs placebo"}}}
{"smiles": "O=C([O-])CC(O)(CC(=O)[O-])C(=O)[O-].[Fe+3]", "note": "[ferric citrate]", "values": [{"measurement": "Ca*PO4", "setting": "[1]; [3]", "result": "decrease"}, {"measurement": "serum PO4", "setting": "[1]; [3]", "result": "decrease"}, {"measurement": "Serum [Ca] (mg/dL) at Day 0", "setting": "[1]; 2 g/day (N = 31)", "result": 8.78, "unit": "mg/dL"}, {"measurement": "Serum [PO4] (mg/dL) at Day 0", "setting": "[1]; 2 g/day (N = 31)", "result": 7.2, "unit": "mg/dL"}, {"measurement": "[Ca] * [PO4] (mg/dL)^2 at Day 0", "setting": "[1]; 2 g/day (N = 31)", "result": "62.9 (mg/dL)^2"}, {"measurement": "Serum [Ca] (mg/dL) at Day 14", "setting": "[1]; 2 g/day (N = 31), Day 14", "result": 9.01, "unit": "mg/dL"}, {"measurement": "Serum [PO4] (mg/dL) at Day 14", "setting": "[1]; 2 g/day (N = 31), Day 14", "result": 6.7, "unit": "mg/dL"}, {"measurement": "[Ca] * [PO4] (mg/dL)^2 at Day 14", "setting": "[1]; 2 g/day (N = 31), Day 14", "result": "60.3 (mg/dL)^2"}, {"measurement": "Serum [Ca] (mg/dL) at Day 28", "setting": "[1]; 2 g/day (N = 31), Day 28", "result": 9.00, "unit": "mg/dL"}, {"measurement": "Serum [PO4] (mg/dL) at Day 28", "setting": "[1]; 2 g/day (N = 31), Day 28", "result": 6.9, "unit": "mg/dL"}, {"measurement": "[Ca] * [PO4] (mg/dL)^2 at Day 28", "setting": "[1]; 2 g/day (N = 31), Day 28", "result": "61.7 (mg/dL)^2"}, {"measurement": "Serum [Ca] (mg/dL) at Day 0", "setting": "[1]; 4 g/day (N = 32)", "result": 9.02, "unit": "mg/dL"}, {"measurement": "Serum [PO4] (mg/dL) at Day 0", "setting": "[1]; 4 g/day (N = 32)", "result": 7.1, "unit": "mg/dL"}, {"measurement": "[Ca] * [PO4] (mg/dL)^2 at Day 0", "setting": "[1]; 4 g/day (N = 32)", "result": "63.5 (mg/dL)^2"}, {"measurement": "Serum [Ca] (mg/dL) at Day 14", "setting": "[1]; 4 g/day (N = 32), Day 14", "result": 9.47, "unit": "mg/dL"}, {"measurement": "Serum [PO4] (mg/dL) at Day 14", "setting": "[1]; 4 g/day (N = 32), Day 14", "result": 6.4, "unit": "mg/dL"}, {"measurement": "[Ca] * [PO4] (mg/dL)^2 at Day 14", "setting": "[1]; 4 g/day (N = 32), Day 14", "result": "59.9 (mg/dL)^2"}, {"measurement": "Serum [Ca] (mg/dL) at Day 28", "setting": "[1]; 4 g/day (N = 32), Day 28", "result": 9.29, "unit": "mg/dL"}, {"measurement": "Serum [PO4] (mg/dL) at Day 28", "setting": "[1]; 4 g/day (N = 32), Day 28", "result": 6.0, "unit": "mg/dL"}, {"measurement": "[Ca] * [PO4] (mg/dL)^2 at Day 28", "setting": "[1]; 4 g/day (N = 32), Day 28", "result": "55.4 (mg/dL)^2"}, {"measurement": "Serum [Ca] (mg/dL) at Day 0", "setting": "[1]; 6 g/day (N = 32)", "result": 8.99, "unit": "mg/dL"}, {"measurement": "Serum [PO4] (mg/dL) at Day 0", "setting": "[1]; 6 g/day (N = 32)", "result": 7.3, "unit": "mg/dL"}, {"measurement": "[Ca] * [PO4] (mg/dL)^2 at Day 0", "setting": "[1]; 6 g/day (N = 32)", "result": "65.8 (mg/dL)^2"}, {"measurement": "Serum [Ca] (mg/dL) at Day 14", "setting": "[1]; 6 g/day (N = 32), Day 14", "result": 9.13, "unit": "mg/dL"}, {"measurement": "Serum [PO4] (mg/dL) at Day 14", "setting": "[1]; 6 g/day (N = 32), Day 14", "result": 6.3, "unit": "mg/dL"}, {"measurement": "[Ca] * [PO4] (mg/dL)^2 at Day 14", "setting": "[1]; 6 g/day (N = 32), Day 14", "result": "57.5 (mg/dL)^2"}, {"measurement": "Serum [Ca] (mg/dL) at Day 28", "setting": "[1]; 6 g/day (N = 32), Day 28", "result": 9.26, "unit": "mg/dL"}, {"measurement": "Serum [PO4] (mg/dL) at Day 28", "setting": "[1]; [4]", "result": 5.8, "unit": "mg/dL"}, {"measurement": "[Ca] * [PO4] (mg/dL)^2 at Day 28", "setting": "[1]; [4]", "result": "54.1 (mg/dL)^2"}, {"measurement": "Ca*P04 levels", "setting": "[1]; 6 gm/day dose at both 14 and 28 days", "result": "have decreased and were statistically significant"}, {"measurement": "Serum Ca (mg/dL): Dose Response", "setting": "[1]; Day 0", "result": "No"}, {"measurement": "Ca × PO4 (mg/dL)^2: Dose Response", "setting": "[1]; [5]", "result": "Yes"}, {"measurement": "Ca × PO4 (mg/dL)^2: Linear Regression P", "setting": "[1]; [5]", "result": "P = 0.0401"}, {"measurement": "Ca × PO4 (mg/dL)^2: Statistical Significant", "setting": "[1]; [5]", "result": "No"}, {"measurement": "Serum Ca (mg/dL): Dose Response", "setting": "[1]; [5]", "result": "No"}, {"measurement": "Serum Ca (mg/dL): Statistical Significant", "setting": "[1]; [5]", "result": "No"}, {"measurement": "Serum PO4 (mg/dL): Dose Response", "setting": "[1]; [5]", "result": "No"}, {"measurement": "Serum PO4 (mg/dL): Statistical Significant", "setting": "[1]; [5]", "result": "No"}, {"measurement": "Serum Ca (mg/dL): Linear Regression", "setting": "[1]; Day 14", "result": "N.S."}, {"measurement": "Ca × PO4 (mg/dL)^2: Dose Response", "setting": "[1]; [6]", "result": "Yes"}, {"measurement": "Serum Ca (mg/dL): Dose Response", "setting": "[1]; [6]", "result": "No"}, {"measurement": "Serum Ca (mg/dL): Statistical Significant", "setting": "[1]; [6]", "result": "No"}, {"measurement": "Serum PO4 (mg/dL): Dose Response", "setting": "[1]; [6]", "result": "Yes"}, {"measurement": "Serum PO4 (mg/dL): Linear Regression P", "setting": "[1]; [6]", "result": "P = 0.0073"}, {"measurement": "Serum PO4 (mg/dL): Statistical Significant", "setting": "[1]; [6]", "result": "Yes (6 g/day)"}, {"measurement": "[Ca] * [PO4] (mg/dL)^2: Dose Response", "setting": "[1]; Day 28, 2, 4, 6 g/day vs placebo", "result": "Yes"}, {"measurement": "Serum Ca (mg/dL): Linear Regression", "setting": "[1]; Day 28", "result": "N.S."}, {"measurement": "Ca × PO4 (mg/dL)^2: Statistical Significant", "setting": "[1]; Day 78, 2, 4, 6 g/day TID vs placebo", "result": "Yes (6 g/day)"}, {"measurement": "serum Ca×P", "setting": "[1]; Phase II study", "result": "decrease serum Ca×P in a dose-dependent manner"}, {"measurement": "change in serum calcium level", "setting": "[1]; during the 28 days, 2, 4, and 6 gm/day", "result": "No significant change"}, {"measurement": "ability to lower serum phosphate levels", "setting": "[1]; patients with ESRD", "result": "demonstrated"}, {"measurement": "Ca × PO4 (mg/dL)^2: Linear Regression P", "setting": "[2]", "result": "P = 0.0158"}]}
